Experimental data: the supplement of paper PMC10883282
± gives the standard deviation of the averaged measurements.

Tested on: RD
Assay: relative viability vs DMSO control (72 h) (fraction); higher = more viable cells
Procedure, shortened: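 Sarcoma cell lines were seeded in 384-well plates at densities set to reach 80–90% confluence. After 24 h, 2.5 µl of serially diluted compound was added (source plates 10 mM to 0.0002 mM), and plates were held 72 h at 37 °C, 5% CO2, with 0.1% DMSO vehicle and a 5 µM positive control. Relative viability came from ATPLite readings as percent growth, averaged over up to triplicate wells. Data were rescaled so full viability equals 1 and none equals 0.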

| Structure (SMILES) | relative viability (0.00017 µM) | relative viability (0.00051 µM) | relative viability (0.00152 µM) | relative viability (0.00457 µM) | relative viability (0.01372 µM) | relative viability (0.04115 µM) | relative viability (0.1235 µM) | relative viability (0.3704 µM) | relative viability (1.111 µM) | relative viability (3.333 µM) | relative viability (10 µM) |
| --- | --- | --- | --- | --- | --- | --- | --- | --- | --- | --- | --- |
| Cc1cc(C)c(/C=C2\C(=O)Nc3ccccc32)[nH]1 [Semaxanib] | 1.07 ± 0.053 | 1.05 ± 0.042 | 1.06 ± 0.035 | 1.08 ± 0.016 | 1.08 ± 0.028 | 1.088 ± 0.0067 | 1.09 ± 0.037 | 1.09 ± 0.02 | 1.08 ± 0.023 | 1.06 ± 0.046 | 1 ± 0.041 |
| O=C(Nc1cnn2ccc(N3CCC[C@@H]3c3cc(F)ccc3F)nc12)N1CC[C@H](O)C1 [Larotrectinib] | 1.07 ± 0.035 | 1.092 ± 0.0046 | 1.09 ± 0.059 | 1.1 ± 0.05 | 1.11 ± 0.042 | 1.1 ± 0.11 | 1.13 ± 0.051 | 1.12 ± 0.073 | 1.13 ± 0.037 | 1.1 ± 0.068 | 1.09 ± 0.12 |
| C=CC(=O)N1CCC[C@@H](n2nc(-c3ccc(Oc4ccccc4)cc3)c3c(N)ncnc32)C1 [Ibrutinib] | 1.08 ± 0.04 | 1.11 ± 0.053 | 1.09 ± 0.032 | 1.13 ± 0.07 | 1.14 ± 0.063 | 1.12 ± 0.054 | 1.15 ± 0.062 | 1.15 ± 0.079 | 1.14 ± 0.083 | 1.13 ± 0.037 | 0.984 ± 0.058 |
| CC(C)N1CCN(Cc2cnc(-c3cc(-c4cccc5[nH]ccc45)cc4[nH]ncc34)o2)CC1 [Nemiralisib] | 0.931 ± 0.024 | 0.951 ± 0.017 | 0.916 ± 0.051 | 0.955 ± 0.025 | 0.941 ± 0.025 | 0.937 ± 0.011 | 0.964 ± 0.016 | 0.902 ± 0.028 | 0.83 ± 0.01 | 0.692 ± 0.053 | 0.128 ± 0.083 |
| CN1CCN(c2ccc3nc(-c4c(N)c5c(F)cccc5[nH]c4=O)[nH]c3c2)CC1 [Dovitinib] | 0.963 ± 0.05 | 0.983 ± 0.064 | 0.991 ± 0.072 | 0.985 ± 0.053 | 0.978 ± 0.099 | 0.995 ± 0.074 | 0.998 ± 0.071 | 0.99 ± 0.072 | 0.812 ± 0.073 | 0.632 ± 0.05 | 0.113 ± 0.035 |
| COc1c(OCCCN2CCOCC2)ccc2c1N=C(NC(=O)c1cnc(N)nc1)N1CCN=C21 [Copanlisib] | 1.07 ± 0.038 | 1.06 ± 0.032 | 1.07 ± 0.082 | 0.77 ± 0.053 | 0.741 ± 0.098 | 0.61 ± 0.01 | 0.438 ± 0.019 | 0.328 ± 0.011 | 0.268 ± 0.013 | 0.225 ± 0.014 | 0.184 ± 0.015 |
| CNC(=O)c1ccc(-c2cnc3ncc(Cc4ccc5ncccc5c4)n3n2)cc1F [Capmatinib] | 1.11 ± 0.025 | 1.1 ± 0.053 | 1.13 ± 0.037 | 1.15 ± 0.065 | 1.12 ± 0.028 | 1.12 ± 0.042 | 1.13 ± 0.077 | 1.14 ± 0.053 | 1.15 ± 0.072 | 1.13 ± 0.12 | 1.1 ± 0.1 |
| Cn1cc(-c2cc3c(N4CCN(c5ncc([C@@](C)(N)c6ccc(F)cc6)cn5)CC4)ncnn3c2)cn1 [Avapritinib] | 1.04 ± 0.055 | 1.03 ± 0.031 | 1.06 ± 0.02 | 1.05 ± 0.041 | 1.05 ± 0.033 | 1.03 ± 0.045 | 1.04 ± 0.02 | 1.06 ± 0.043 | 1.03 ± 0.043 | 0.939 ± 0.03 | 0.813 ± 0.087 |
| CCCS(=O)(=O)Nc1ccc(F)c(C(=O)c2c[nH]c3ncc(-c4ccc(Cl)cc4)cc23)c1F [Vemurafenib] | 1.14 ± 0.071 | 1.12 ± 0.08 | 1.14 ± 0.073 | 1.13 ± 0.073 | 1.12 ± 0.059 | 1.13 ± 0.061 | 1.11 ± 0.053 | 1.12 ± 0.053 | 1.14 ± 0.07 | 1.11 ± 0.036 | 0.785 ± 0.079 |
| CC1(C)CNc2cc(NC(=O)c3cccnc3NCc3ccncc3)ccc21 [Motesanib] | 0.967 ± 0.013 | 0.964 ± 0.041 | 0.973 ± 0.046 | 0.96 ± 0.046 | 0.965 ± 0.04 | 0.989 ± 0.051 | 0.962 ± 0.032 | 0.975 ± 0.028 | 0.996 ± 0.056 | 1.03 ± 0.034 | 0.987 ± 0.066 |
| C=CC(=O)Nc1cccc(Oc2nc(Nc3ccc(N4CCN(C)CC4)cc3)nc3ccsc23)c1 [Olmutinib] | 1.02 ± 0.051 | 1.04 ± 0.045 | 1.03 ± 0.046 | 1.04 ± 0.032 | 1.03 ± 0.068 | 1.03 ± 0.056 | 1.04 ± 0.051 | 1.07 ± 0.058 | 1.01 ± 0.051 | 0.892 ± 0.08 | 0.174 ± 0.025 |
| COc1cc2nccc(Oc3ccc(NC(=O)Nc4cc(C)on4)c(Cl)c3)c2cc1OC [Tivozanib] | 1.12 ± 0.07 | 1.12 ± 0.085 | 1.13 ± 0.009 | 1.13 ± 0.068 | 1.135 ± 0.011 | 1.14 ± 0.016 | 1.14 ± 0.05 | 1.18 ± 0.052 | 1.169 ± 0.0077 | 1.17 ± 0.018 | 0.814 ± 0.019 |
| CNC(=O)c1cc(Oc2ccc(NC(=O)Nc3ccc(Cl)c(C(F)(F)F)c3)c(F)c2)ccn1 [Regorafenib] | 1.06 ± 0.017 | 1.11 ± 0.028 | 1.13 ± 0.052 | 1.14 ± 0.089 | 1.13 ± 0.075 | 1.14 ± 0.063 | 1.12 ± 0.04 | 1.01 ± 0.058 | 0.877 ± 0.069 | 0.787 ± 0.05 | 0.558 ± 0.048 |
| Cc1ccc(F)c(NC(=O)Nc2ccc(-c3cccc4[nH]nc(N)c34)cc2)c1 [Linifanib] | 1.07 ± 0.027 | 1.07 ± 0.028 | 1.08 ± 0.039 | 1.124 ± 0.01 | 1.12 ± 0.025 | 1.1 ± 0.033 | 1.14 ± 0.018 | 1.14 ± 0.031 | 1.12 ± 0.031 | 1.11 ± 0.042 | 1.13 ± 0.029 |
| Cc1cnc(Nc2ccc(OCCN3CCCC3)cc2)nc1Nc1cccc(S(=O)(=O)NC(C)(C)C)c1 [Fedratinib] | 1.07 ± 0.031 | 1.09 ± 0.03 | 1.12 ± 0.042 | 1.13 ± 0.048 | 1.12 ± 0.064 | 1.14 ± 0.058 | 1.09 ± 0.09 | 0.785 ± 0.066 | 0.445 ± 0.025 | 0.0678 ± 0.011 | 0.00303 ± 0.0004 |
| C=CC(=O)N1CCC([C@@H]2CCNc3c(C(N)=O)c(-c4ccc(Oc5ccccc5)cc4)nn32)CC1 [Zanubrutinib] | 0.942 ± 0.064 | 0.952 ± 0.048 | 0.964 ± 0.068 | 0.958 ± 0.058 | 0.952 ± 0.046 | 0.96 ± 0.079 | 0.926 ± 0.075 | 0.893 ± 0.11 | 0.876 ± 0.1 | 0.847 ± 0.081 | 0.843 ± 0.06 |
| CN1CCC(COc2cnc(-c3cccc(Cn4nc(-c5cccc(C#N)c5)ccc4=O)c3)nc2)CC1 [Tepotinib] | 1.03 ± 0.049 | 1.1 ± 0.084 | 1.09 ± 0.039 | 1.1 ± 0.055 | 1.12 ± 0.031 | 1.13 ± 0.049 | 1.12 ± 0.093 | 1.14 ± 0.029 | 1.1 ± 0.065 | 1.11 ± 0.031 | 0.941 ± 0.07 |
| Cc1nc(NC(=O)N2CCC[C@H]2C(N)=O)sc1-c1ccnc(C(C)(C)C(F)(F)F)c1 [Alpelisib] | 1.04 ± 0.032 | 1.068 ± 0.0091 | 1.04 ± 0.056 | 1.07 ± 0.041 | 1.05 ± 0.052 | 1.03 ± 0.1 | 0.932 ± 0.045 | 0.851 ± 0.083 | 0.7 ± 0.055 | 0.594 ± 0.024 | 0.557 ± 0.044 |
